# Columns and labels:
# Assay type in all cases: physicochemical
# [1] = In vitro release of AMP from PEG2000-containing PU rods; conditions: pH 4.2 acetate buffer; for release profile: 37° C.
# Experimental: Incorporation of AMP in PU matrix: Homogenous distribution of AMP and PEG2000 in the PU matrix was achieved by solvent casting. AMP (500 mg), PEG2000 (500 mg (5% w/w), 1000 mg (10% w/w) and 1500 mg (15% w/w)) and PU (added to make the total weight of PEG+AMP+PU mixture to 10 g) were dissolved in 75:25 mixture of dichloromethane and tetrahydrofuran. About 75% of the solvent was removed under reduced pressure and the viscous solution of PU, AMP and PEG2000 was poured into a silanized crystallization flask which was further dried under air at a flow rate of 4 L/min for 2-3 days. The […] incorporated PU films thus obtained were cut into small pieces and further dried under high vacuum until constant weight was achieved.
# Extrusion of PEG2000 and AMP loaded solid cross-sectional PU: Extrusion was conducted at 165-175° C. into solid cross-sectional rods using a lab scale extruder (CSI Max Mixing Extruder CS-194A, Custom Scientific Instrument Inc., Easton, Pa.). The extruded and molten polymer output from the extruder was immediately fed to an aluminum mold (4.3 mm diameter, 25 cm length, previously spray coated with mold release agent) maintained at 120° C. The mold was cooled to below 80° C. and opened carefully without stretching the PU rod. The release profile of AMP was measured from PU rods using pH 4.2 25 mM acetate buffer (osmolarity adjusted to 310 mOsm/kg using NaCl, 0.02% sodium azide) at 37° C. and 60 rpm. About 2 cm length segments were cut from the solid cross-sectional AMP loaded PU rods. The dimensions (length and diameter) and weight of each segment were recorded. The sink was replaced with fresh buffer every 24±0.5 h for 10 days. HPLC analyses were performed and the cumulative release was calculated by integrating the area under the curve using Kaleidagraph software (Synergy Software, Reading, Pa.). The release study for each loading was performed on triplicate samples. […] A burst release is obtained in all PEG-PU compositions that is proportional to the PEG concentration.
# [2] = Release of Tenofovir from Tecoflex EG-93A matrices with PEG2000 with and without salts; conditions: 5% w/w PEG
# Experimental: Incorporation of Tenofovir and PEG2000 and salts in EG-93A matrices: Homogenous distribution of Tenofovir, PEG2000 with and without salts in Tecoflex EG-93A_matrices were achieved by solvent casting. Tenofovir (250 mg), PEG2000 (250 mg (5% w/w)) and salts (NaCl=50 mg (1% w/w) or 125 mg (2.5% w/w) or CaCl2=125 mg (2.5% w/w)) were dispersed in 75:25 mixture of dichloromethane and tetrahydrofuran followed by sonication for 30 minutes. About 75% of the solvent was removed under reduced pressure and the viscous solution was poured into a silanized crystallization flask which was further dried under air at a flow rate of 4 L/min for 2-3 days. The Tenofovir incorporated polymer films thus obtained were cut into small pieces and further dried under high vacuum until constant weight was achieved. About 1.2 g of the polymer film pieces were taken in a 20 mL scintillation vial which was incubated at 210° C. for about 5-6 minutes to allow the polymer pieces to melt and fuse to form a continuous film in the bottom of the vial. Then 5 mL of sink (25 mM pH 4.2 buffer, osmolarity adjusted to 310 mOsm/kg with NaCl, and 0.02% sodium azide) was added. The sink was replaced with fresh buffer every 24±0.5 h for 15 days. HPLC analyses were performed and the cumulative release was calculated by integrating the area under the curve using Kaleidagraph software (Synergy Software, Reading, Pa.). […]
# [3] = Release of Tenofovir from Tecoflex EG-80A and EG-85A small rings with and without PEG2000; conditions: Tecoflex EG-80A and EG-85A matrices, 50 mg/g, 5% w/w PEG, pH 4.2 acetate buffer, 15 days
# Experimental: Incorporation of Tenofovir and PEG2000 in Tecoflex EG-80A and EG-85A matrices: Homogenous distribution of Tenofovir and PEG2000 in Tecoflex EG-80A or EG-85A_matrices were achieved by solvent casting. Tenofovir (500 mg) with or without PEG2000 (500 mg) were dissolved in 75:25 mixture of dichloromethane and tetrahydrofuran. About 75% of the solvent was removed under reduced pressure and the viscous solution was poured into a silanized crystallization flask which was further dried under air at a flow rate of 4 L/min for 2-3 days. The Tenofovir incorporated polymer films thus obtained were cut into small pieces and further dried under high vacuum until constant weight was achieved.
# Solid cross-sectional rods were obtained by extrusion of polymer films obtained in the above step at 155-165° C. using a lab scale extruder (CSI Max Mixing Extruder CS-194A, Custom Scientific Instrument Inc., Easton, Pa.). Small rings were fabricated by joining the ends of rods of approximately 6 cm in length. The release profile of Tenofovir was measured from Tenofovir loaded small rings using pH 4.2 25 mM acetate buffer (osmolarity adjusted to 310 mOsm/kg using NaCl, 0.02% sodium azide) at 37° C. and 60 rpm. […] HPLC analyses were performed and the cumulative release was calculated by integrating the area under the curve using Kaleidagraph software (Synergy Software, Reading, Pa.). […]
release profile ([1]; 5% w/w PEG in PU),release profile ([1]; 10% w/w PEG in PU),release profile ([1]; 15% w/w PEG in PU),release profile ([2]; 2.5 w/w CaCl2),release profile ([2]; 2.5 w/w NaCl),Structure (SMILES),effect of PEG incorporation on release ([1]; PEG-PU rods vs PU),effect of PEG incorporation on release [3]
zero order,diffusion limited,diffusion limited,–,–,"Nc1ncnc2c1ncn2[C@@H]1O[C@H](COP(=O)(O)O)[C@@H](O)[C@H]1O [AMP, Adenosine Monophosphate]",increases the overall amount of drug released per day,–
–,–,–,nearly zero-order release,nearly zero-order release,"C[C@H](Cn1cnc2c(N)ncnc21)OCP(=O)(O)O [Tenofovir, ({[(2R)-1-(6-amino-9H-purin-9-yl)propan-2-yl]oxy}methyl)phosphonic acid]",–,increases the overall amount of drug released per day
